Here are results for 3 compounds from US6410249B1, “Odorant receptors” (priority 1999, dated 2002).

Like-named read-outs stand apart in the source and are kept apart here.

The target of experiment [1] is T1, receptor 5.24 (Carassius auratus, UniProt Q9PW88).
T1 construct: The receptor 5.24 full length cDNA detects 1-2 bands in genomic DNA blots; expressed in transfected cells; host or cells: HEK 293 cells expressing SV40 large T antigen (293-TSA)
T1 sequence (Q9PW88 25-877): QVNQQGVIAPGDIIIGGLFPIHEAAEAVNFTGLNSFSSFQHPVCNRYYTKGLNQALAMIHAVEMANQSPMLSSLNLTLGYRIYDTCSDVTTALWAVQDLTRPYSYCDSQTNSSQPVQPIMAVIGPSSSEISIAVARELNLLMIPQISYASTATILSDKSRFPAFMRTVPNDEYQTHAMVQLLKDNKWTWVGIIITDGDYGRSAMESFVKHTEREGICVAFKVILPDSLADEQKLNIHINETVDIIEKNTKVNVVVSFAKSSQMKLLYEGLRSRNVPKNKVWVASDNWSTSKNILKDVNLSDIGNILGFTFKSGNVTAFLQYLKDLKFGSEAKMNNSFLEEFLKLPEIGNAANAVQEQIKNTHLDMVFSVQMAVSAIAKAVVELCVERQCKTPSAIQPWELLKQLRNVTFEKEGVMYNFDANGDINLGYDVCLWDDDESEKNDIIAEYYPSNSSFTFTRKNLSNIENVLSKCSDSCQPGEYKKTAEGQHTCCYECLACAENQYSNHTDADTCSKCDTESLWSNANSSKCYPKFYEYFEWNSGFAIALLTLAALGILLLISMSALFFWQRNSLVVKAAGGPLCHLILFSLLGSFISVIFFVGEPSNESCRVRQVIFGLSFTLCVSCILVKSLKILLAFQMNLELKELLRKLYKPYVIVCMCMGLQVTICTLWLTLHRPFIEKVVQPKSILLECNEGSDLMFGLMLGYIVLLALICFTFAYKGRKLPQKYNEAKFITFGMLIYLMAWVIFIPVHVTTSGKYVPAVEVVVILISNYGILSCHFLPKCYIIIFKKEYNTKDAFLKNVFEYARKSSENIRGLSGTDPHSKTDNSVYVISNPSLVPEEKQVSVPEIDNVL
Nature of the experiment: biochemical. In kind it is binding. The method, then:
Structure-Activity Properties of Compounds Interacting with the Cloned Goldfish Amino Acid Odorant Receptor. An understanding of how odorant receptors are used to encode olfactory information requires a characterization of the odorant specificities of individual receptor types. We therefore wished to determine the relative specificity of receptor 5.24 for structurally related ligands. […] Briefly, 3H-arginine binding to membranes from receptor 5.24-expressing HEK 293 cells was assayed in the absence or presence of varying concentrations of competitor ligands.
(§1) Mammalian Cell Culture and DNA Transfections. For cell transfections, the receptor 5.24 cDNA insert was subcloned into two expression vectors: CMVI, which utilizes a human cytomegalovirus (CMV) immediate early promoter-enhancer plus the CMV intron A sequence to drive expression, and 608RX-2.2L, which is similar to CMVI except the cDNA insert is followed by an internal ribosome entry site (IRES)—enhanced green fluorescent protein (EGFP) coding sequence; 608RX-2.2L also contains a puromycin resistance gene. For transient assays, HEK 293 cells expressing the SV40 large T antigen (293 TSA cells) were transfected with the CMVI-receptor 5.24 or CMVI control plasmid using lipofectamine (Life Technologies) and harvested at 48 hours for membrane preparations. For stable cell lines, 293-TSA cells were transfected with the 608RX-2.2L-receptor 5.24 plasmid or a control 608RX-2.2L plasmid and selected in puromycin. Colonies showing high levels of EGFP fluorescence (as judged by epifluorescence microscopy) were picked, expanded, and screened for 3H-L-arginine binding (see below).
(§2) Membrane Preparations and Ligand Binding Assays. Membranes for ligand binding assays were prepared by washing confluent cells three times with phosphate buffered saline (PBS), detaching cells with a PBS-based enzyme-free dissociation solution, and resuspending cells in ice-cold 5.0 mM Hepes, pH 7.4, 1.0 mM EDTA, 1.0 μg/ml leupeptin, 0.5 mM PMSF. All subsequent manipulations were performed on ice. After a 30 min incubation, the cell suspension was homogenized and centrifuged at 100,000×g for 30 min. Cell membrane pellets were washed twice by resuspension and centrifugation in binding buffer (20 mM Hepes, pH 7.4, 1.0 mM EDTA, 2.0 mM MgCl2, 1.0 μg/ml leupeptin, 0.5 mM PMSF), resuspended in binding buffer, and frozen at −80° C.
Saturation binding assays were performed using 20-25 μg of membrane protein in a final volume of 100 μl binding buffer and increasing concentrations of [2,3-3H] L-arginine (specific activity=40 Ci/mmol; Dupont NEN). Non-specific binding was measured in the presence of 500 μM unlabeled L-arginine. Competition assays were performed with 500 nM [2,3-3H] L-arginine and increasing concentrations of competitor ligands. All incubations were performed at 4° C. for 60 min and terminated by rapid filtration through Whatman GF/C filters pretreated with ice cold 0.1% polyethyleneimine. Filters were washed three times with 4.0 ml ice cold 20 mM Hepes, pH 7.4, and retained radioactivity was measured by scintillation counting.

Experiment [2] addresses T1, receptor 5.24. As to the kind of experiment: 3H-L-arginine saturation binding to membranes of receptor 5.24-expressing HEK 293 cells. On the set-up: species or system goldfish. Conditions: summary statement; read-out: Kd (high affinity interaction).
Excerpt: High-Affinity Binding of Radiolabeled L-Arginine to the Cloned Goldfish Odorant Receptor. To determine the affinity of the cloned goldfish amino acid receptor for basic amino acids, we characterized the ligand-receptor interaction by radiolabeled ligand binding to receptors expressed in mammalian cells. Human embryonic kidney (HEK) 293 cells were transfected with expression plasmids containing the receptor 5.24 cDNA insert. […] We next wished to determine what second messenger pathway receptor 5.24 couples to in HEK 293 cells. Control cells or cells expressing receptor 5.24 were exposed to varying concentrations of arginine and assayed for the accumulation of IP3 and cAMP.
as §1, with “below). In five independent receptor 5.24-transfected stable cell lines, receptor densities (Rt) varied between 0.5 and 6.0 pmol L-arginine binding sites/mg membrane protein. […] All competition binding assays and signal transduction studies were performed using the stable cell line 5.24-20 (Rt=2.0 pmol /mg) and a control cell line (2.2-9) stably transfected with vector alone (Rt=0.03 pmol/mg).” for “below).”
as §2
Saturation binding assays were performed using 20-25 μg of membrane protein in a final volume of 100 μl binding buffer and increasing concentrations of [2,3-3H] L-arginine (specific activity=40 Ci/mmol; Dupont NEN). Non-specific binding was measured in the presence of 500 μM unlabeled L-arginine. Competition assays were performed with 500 nM [2,3-3H] […] Filters were washed three times with 4.0 ml ice cold 20 mM Hepes, pH 7.4, and retained radioactivity was measured by scintillation counting. […] Data were analyzed by nonlinear curve fitting using Origin software (Microcal). […]

Experiment [3] has as its target T1, receptor 5.24. Nature of the experiment: evoked currents in Xenopus oocytes expressing receptor 5.24 (two-electrode voltage clamp). In kind it is cell-based, goldfish. An excerpt: Identification by Expression Cloning of a cDNA Encoding a Goldfish Odorant Receptor. RNA was synthesized from pools of goldfish olfactory cDNA clones (900 individual clones per pool) and injected into Xenopus oocytes together with synthetic RNAs encoding GIRK and Gaolf. Oocytes were then screened for responses upon exposure to odorant cocktails containing amino acids, bile acids, or sex pheromones. […] The response to amino acids was biphasic, beginning with an oscillating inward current above the basal inward K+ current, followed by a decline in inward current to below the basal level. Such a biphasic effect is thought to be caused by Gaq-mediated activation of phospholipase C (responsible for the intial inward current via IP3) and protein kinase C (leading to suppression of the K+ current through phosphorylation of GIRK channel subunits) (Sharon et al., 1997).
Iterative subdivision of pool 19 by sib-selection allowed the isolation of a single clone encoding a receptor, designated receptor 5.24.
Oocytes were removed from anesthetized Xenopus laevis and treated with collagenase. Forty nanograms of cRNA from each cDNA library pool (˜40 pg cRNA/clone) was injected per oocyte, together with cRNAs encoding Gaolf and the GIRK subunits Kir 3.1 and Kir 3.4 (˜30 pg each). Approximately 30 pools were assayed before these primary screens were halted. Injected oocytes were incubated at 17° C. for over 80 hours prior to electrophysiological recordings. Recordings were performed by two-electrode voltage clamping using an Axoclamp-2A amplifier (Axon Instruments) or a Dagan CA-1 amplifier (Dagan Corp.). Data acquisition and analysis were performed using pCLAMP software (Axon Instruments). Membrane potential was held at −80 mV. For trials involving GIRK, oocytes were first perfused with Na-MBSH (88 mM NaCl, 1 mM KCl, 2.4 mM NaHCO3, 10 mM Hepes, pH 7.5, 0.82 mM MgSO4[7H2O], 0.33 mM Ca[NO3]2[4H2O], 0.41 mM CaCl2[2H2O]), and then switched into K-MBSH, which contains elevated K+ (88 mM KCl, 1 mM NaCl) until the basal current had stabilized (˜45 seconds) before challenging with agonist. Recordings on oocytes injected with receptor 5.24 in the absence of Gaolf and/or GIRK subunits were performed in Na-MBSH. Oocytes were exposed to solutions containing different agonists by switching bathing solutions with an 8 channel valve (Hamilton).
Background: In two-electrode clamp one electrode senses voltage and the other passes current.

For another experiment, the system named is salmon olfactory neurons. Conditions: 0.01-10 μM, isolated salmon olfactory neurons; cited from earlier work.
In experiment [4] the test system is goldfish olfactory neurons. Nature of the experiment: multi-unit recordings from the goldfish olfactory epithelium. In kind it is cell-based. Conditions: 0.1 μM.

The Ki is the dissociation constant of the complex between target and ligand, obtained from inhibition or displacement. One may read the Kd as a measure of binding affinity in units of concentration. `NCCCC[C@H](N)C(=O)O` [L-Lysine] yielded a Ki at receptor 5.24 [1] of 90 nM. The “binding to receptor 5.24, in words” value at receptor 5.24 [1] (comparative binding studies) was “highest affinities”. Further, the Kd at receptor 5.24 [2] is roughly 100 nM.

For the compound `N[C@@H](CO)C(=O)O` [L-Serine], the “activation of receptor 5.24 (evoked currents), in words” value on receptor 5.24 [3] is reported as “smaller responses”. For the same compound, in the experiment with salmon olfactory neurons, the “fraction of cells sensitive” value is reported as roughly 60%. Besides, the Ki at receptor 5.24 [1] (displacement of 3H-L-arginine from membranes of HEK 293 cells expressing receptor 5.24, read-out: Ki (binding affinity)) came to 2800 nM.

In the case of `CCCCCC(=O)/C=C/[C@@H]1[C@@H](C/C=C\CCCC(=O)O)[C@@H](O)C[C@H]1O` [1 5-ketoprostaglandin F2a], the locations that responded in experiment [4] was 25 out of 65.
